US11325899B2, “Benzofurane and benzothiophene derivatives as PGE2 receptor modulators” (IDORSIA PHARMACEUTICALS LTD, priority 2017, dated 2022)

How the values were obtained:
Assay type in all cases: cell-based
PTGER2 (EP2) = target: T1, PTGER2 (EP2) (Homo sapiens, UniProt P43116); test: hEP2 b-arrestin assay (PathHunter HEK 293 PTGER2 b-arrestin cells); conditions: antagonistic activity, beta-arrestin assay; read-out: hEP2 b-arr IC50
T1 construct: host or cells: HEK 293 (PathHunter PTGER2 b-arrestin cell line)
Outline: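 Antagonism measured as inhibition of PGE2-driven β-arrestin 2 recruitment (enzyme fragment complementation, luminescence) in engineered HEK293 EP2 cells. Agonist: 5 μM PGE2, ~EC80, 120 min at 37 °C after 15 min compound preincubation; test range 10 μM-2 nM or 1 μM-0.2 nM, duplicates, IC50 fitted.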

PTGER4 (EP4) = target: T2, PTGER4 (EP4) (Homo sapiens, UniProt P35408); test: hEP4 b-arrestin assay (PathHunter HEK 293 PTGER4 b-arrestin cells); conditions: antagonistic activity, beta-arrestin assay; read-out: hEP4 b-arr IC50
T2 construct: host or cells: HEK 293 (PathHunter PTGER4 b-arrestin cell line)
Outline: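 β-Arrestin recruitment to EP4 was read as enzyme-fragment-complementation chemiluminescence in stably transfected HEK 293 cells. After 15 min compound preincubation at 37 °C (ranges 10 μM–2 nM or 1 μM–0.2 nM), cells were stimulated 120 min with PGE2 at 20 nM, its EC80. IC50 values were fitted from duplicates, with repeat measurements averaged.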

EP4 receptor = target: T3, EP4 receptor (Homo sapiens, UniProt P35408); test: hEP4 cAMP assay (BT549 breast cancer cells, HTRF cAMP, PGE2 stimulation); conditions: antagonistic activity, PGE2 6 nM (EC80)
T3 construct: BT549 breast cancer cells, express high endogenous EP4 levels and very low EP2 levels; host or cells: BT549 breast cancer cells
Method: The antagonistic activities of the compounds of formula (I) on the EP2 and EP4 receptors are also determined in accordance with the following experimental method.
Human tumor cell lines expressing endogenously either EP4 or EP2 are used and cAMP accumulation in cells upon PGE2 stimulation is monitored. SF295 glioblastoma cells express high endogenous EP2 and no EP4, whereas BT549 breast cancer cells, express high endogenous EP4 levels and very low EP2 levels.
As a detection method for cAMP the HTRF (homogeneous time resolved fluorescence) Cisbio kit (HTRF cAMP dynamic 2 kit 20′000 tests Cisbio Cat. #62AM4PEC) was used, which is based on a competitive immunoassay using a Cryptate-labeled anti-cAMP antibody and d2-labeled cAMP. Native cAMP produced by cells or unlabeled cAMP (for the standard curve) compete with exogenously added d2-labeled cAMP (acceptor) for binding to monoclonal anti-cAMP-Eu3+ Cryptate (donor). A FRET signal (Fluorescence Resonance Energy Transfer) is obtained only if the labeled anti-cAMP antibody binds the d2 labelled cAMP, thus the specific signal (i.e. energy transfer) is inversely proportional to the concentration of cAMP in the standard or sample.
The BT549 cells (NCI/No. 0507282) are detached from culture dishes with a cell dissociation buffer (Invitrogen, 13151-014), and collected in growing medium (GM: RPMI1640 (Invitrogen 21875)/10% FCS, 1% Penicilin/streptomycin). Cells are counted washed and resuspended in assay buffer (AB; HBSS, 20 mM HEPES, 0.2% BSA; 2 mM IBMX). 4′000 cells in 5 μl of AB are seeded per well of a small volume 384 well plate (black with flat bottom, Greiner 784076).
Stock solutions of test compounds are made at a concentration of 10 mM in DMSO, and serially diluted in DMSO to concentrations required for inhibition dose response curves (tested concentration range 30 μM-0.4 nM; 30 μM-0.015 nM or 1 uM-0.01 nM).
PGE2 (Cayman 14010, stock solution: 6 μM in DMSO) is used as agonist at 6 nM final concentration, corresponding to EC80.
Two point five microliters of diluted compounds are transferred into the assay plate. Plate is pre-incubated 45 minutes at room temperature. Subsequently, 2.5 microliters of PGE2 (final conc. 6 nM) are transferred into the assay plate. Plate is incubated 30 minutes at room temperature. Five μl of each donor (anti-cAMP cryptate) and acceptor (cAMP-d2) are added and the plate is incubated another hour at room temperature in the dark and then read using a BMG LABTECH PHERAstar reader (Excitation:337 nm, Emission:620 and 665 nm).
The obtained Delta F(fluorescence) values (665 nm/620 nM) are converted into % cAMP values using the measurements of the cAMP calibrator provided in the kit. For each compound concentration the percentage of cAMP compared to DMSO control value as average±STDEV (each concentration is measured in duplicate) is calculated.
IC50 values and curves are generated with XLfit software (IDBS) using Dose-Response One Site model 203. When compounds were measured multiple times, mean values are given.

T1 sequence (P43116 whole entry): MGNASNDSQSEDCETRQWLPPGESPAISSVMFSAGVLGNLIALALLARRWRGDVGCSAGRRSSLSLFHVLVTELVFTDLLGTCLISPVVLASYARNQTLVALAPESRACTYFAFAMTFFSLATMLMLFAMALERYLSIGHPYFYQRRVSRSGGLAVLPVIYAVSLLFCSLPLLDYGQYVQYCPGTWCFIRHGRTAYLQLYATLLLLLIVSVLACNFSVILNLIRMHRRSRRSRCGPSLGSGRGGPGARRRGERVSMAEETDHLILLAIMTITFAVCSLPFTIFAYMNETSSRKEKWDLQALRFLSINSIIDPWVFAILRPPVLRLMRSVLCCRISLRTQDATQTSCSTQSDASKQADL
T2 sequence (P35408 whole entry): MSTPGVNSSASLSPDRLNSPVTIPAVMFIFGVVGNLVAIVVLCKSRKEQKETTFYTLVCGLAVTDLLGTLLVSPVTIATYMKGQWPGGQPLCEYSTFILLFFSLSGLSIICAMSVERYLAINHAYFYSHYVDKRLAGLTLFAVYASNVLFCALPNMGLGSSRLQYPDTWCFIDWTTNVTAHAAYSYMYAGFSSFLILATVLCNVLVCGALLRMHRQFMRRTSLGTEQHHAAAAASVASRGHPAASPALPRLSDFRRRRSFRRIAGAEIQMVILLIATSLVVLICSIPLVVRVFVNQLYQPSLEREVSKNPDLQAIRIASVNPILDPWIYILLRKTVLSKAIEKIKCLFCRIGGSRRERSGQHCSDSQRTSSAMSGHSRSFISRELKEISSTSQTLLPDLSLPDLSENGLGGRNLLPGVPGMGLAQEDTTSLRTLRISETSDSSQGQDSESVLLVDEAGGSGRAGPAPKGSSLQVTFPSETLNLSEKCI
T3 sequence (P35408 whole entry): as above

SMILES | IC50 (PTGER2 (EP2)) | IC50 (PTGER4 (EP4)) | IC50 (EP4 receptor)
CCOc1cc(-c2cc(NCCc3c(C)sc4c(C)cccc34)ncn2)ccc1C(C)C(=O)O (racemic) [Example 126, rac-2-(4-{6-[2-(2,7-Dimethyl-benzo[b]thiophen-3-yl)-ethylamino]-pyrimidin-4-yl}-2-ethoxy-phenyl)-propionic acid] | 104 nM | 423 nM | 425 nM
COc1ccc(Cl)c2c(CCNc3cc(-c4cc(C)c(C(=O)O)s4)ncn3)c(C)sc12 [Example 5, 5-{6-[2-(4-Chloro-7-methoxy-2-methyl-benzo[b]thiophen-3-yl)-ethylamino]-pyrimidin-4-yl}-3-methyl-thiophene-2-carboxylic acid] | 106 nM | 247 nM | 479 nM
Cc1cc(-c2cc(NCCc3c(C)oc4ccccc34)ncn2)sc1C(=O)O [Example 6, 3-Methyl-5-{6-[2-(2-methyl-benzofuran-3-yl)-ethylamino]-pyrimidin-4-yl}-thiophene-2-carboxylic acid] | 5 nM | 673 nM | 549 nM
CCc1oc2c(C)cc(F)cc2c1CCNc1cc(-c2cc(C)c(C(=O)O)s2)ncn1 [Example 7, 5-{6-[2-(2-Ethyl-5-fluoro-7-methyl-benzofuran-3-yl)-ethylamino]-pyrimidin-4-yl}-3-methyl-thiophene-2-carboxylic acid] | 283 nM | 577 nM | 624 nM
Cc1sc2c(C)cccc2c1CCNc1cc(-c2ccc(C(=O)O)cc2)ncn1 [Example 8, 4-{6-[2-(2,7-Dimethyl-benzo[b]thiophen-3-yl)-ethylamino]-pyrimidin-4-yl}-benzoic acid] | 16 nM | 1170 nM | 369 nM
COc1ccc(Cl)c2c(CCNc3cc(-c4ccc(C(=O)O)c(O)c4)ncn3)c(C)sc12 [Example 9, 4-{6-[2-(4-Chloro-7-methoxy-2-methyl-benzo[b]thiophen-3-yl)-ethylamino]-pyrimidin-4-yl}-2-hydroxy-benzoic acid] | 118 nM | 1650 nM | 550 nM
Cc1sc2c(C)cc(F)cc2c1CCNc1cc(-c2ccc(C(=O)O)c(O)c2)ncn1 [Example 10, 4-{6-[2-(5-Fluoro-2,7-dimethyl-benzo[b]thiophen-3-yl)-ethylamino]-pyrimidin-4-yl}-2-hydroxy-benzoic acid] | 58 nM | 1040 nM | 860 nM
CSc1cc(-c2cc(NCCc3c(C#N)sc4c(C)cc(F)cc34)ncn2)ccc1C(=O)O [Example 12, 4-{6-[2-(2-Cyano-5-fluoro-7-methyl-benzo[b]thiophen-3-yl)-ethylamino]-pyrimidin-4-yl}-2-methylsulfanyl-benzoic acid] | 4 nM | 112 nM | 20 nM
COc1cccc2c(CCNc3cc(-c4ccc(C(=O)O)c(SC)c4)ncn3)c(C#N)sc12 [Example 13, 4-{6-[2-(2-Cyano-7-methoxy-benzo[b]thiophen-3-yl)-ethylamino]-pyrimidin-4-yl}-2-methylsulfanyl-benzoic acid] | 51 nM | 114 nM | 27 nM
CCOc1cc(-c2cc(NCCc3c(C)sc4c(C)cc(F)cc34)ncn2)sc1/C=C/C(=O)O [Example 96, (E)-3-(3-Ethoxy-5-{6-[2-(5-fluoro-2,7-dimethyl-benzo[b]thiophen-3-yl)-ethylamino]-pyrimidin-4-yl}-thiophen-2-yl)-acrylic acid] | 20 nM | 16 nM | 42 nM
CCOc1cc(-c2cc(NCCc3c(C)sc4c(C)cc(F)cc34)ncn2)sc1CCC(=O)O [Example 97, 3-(3-Ethoxy-5-{6-[2-(5-fluoro-2,7-dimethyl-benzo[b]thiophen-3-yl)-ethylamino]-pyrimidin-4-yl}-thiophen-2-yl)-propionic acid] | 49 nM | 84 nM | 105 nM
COc1ccc(Cl)c2c(CCNc3cc(-c4ccc(C(=O)O)c(OC(C)C)c4)ncn3)c(C)sc12 [Example 98, 4-{6-[2-(4-Chloro-7-methoxy-2-methyl-benzo[b]thiophen-3-yl)-ethylamino]-pyrimidin-4-yl}-2-isopropoxy-benzoic acid] | 55 nM | 340 nM | 216 nM
CCCOc1cc(-c2cc(NCCc3c(C)sc4c(C)c(F)ccc34)ncn2)ccc1C(=O)O [Example 99, 4-{6-[2-(6-Fluoro-2,7-dimethyl-benzo[b]thiophen-3-yl)-ethylamino]-pyrimidin-4-yl}-2-propoxy-benzoic acid] | 5 nM | 238 nM | 450 nM
CCCOc1cc(-c2cc(NCCc3c(C)sc4c(C)cc(F)cc34)ncn2)ccc1C(=O)O [Example 100, 4-{6-[2-(5-Fluoro-2,7-dimethyl-benzo[b]thiophen-3-yl)-ethylamino]-pyrimidin-4-yl}-2-propoxy-benzoic acid] | 12 nM | 299 nM | 457 nM
CCCOc1cc(-c2cc(NCCc3c(C)sc4c(OC)ccc(Cl)c34)ncn2)ccc1C(=O)O [Example 101, 4-{6-[2-(4-Chloro-7-methoxy-2-methyl-benzo[b]thiophen-3-yl)-ethylamino]-pyrimidin-4-yl}-2-propoxy-benzoic acid] | 22 nM | 505 nM | 482 nM
CCCOc1cc(-c2cc(NCCc3c(C)sc4c(Cl)ccc(Cl)c34)ncn2)ccc1C(=O)O [Example 102, 4-{6-[2-(4,7-Dichloro-2-methyl-benzo[b]thiophen-3-yl)-ethylamino]-pyrimidin-4-yl}-2-propoxy-benzoic acid] | 26 nM | 810 nM | 867 nM
CCOc1cc(-c2cc(NCCc3c(C)sc4c(C)ccc(F)c34)ncn2)cc(C)c1C(=O)O [Example 103, 2-Ethoxy-4-{6-[2-(4-fluoro-2,7-dimethyl-benzo[b]thiophen-3-yl)-ethylamino]-pyrimidin-4-yl}-6-methyl-benzoic acid] | 79 nM | 521 nM | 331 nM
CCOc1cc(-c2cc(NCCc3c(C#N)sc4c(C)cc(F)cc34)ncn2)ccc1CC(=O)O [Example 104, (4-{6-[2-(2-Cyano-5-fluoro-7-methyl-benzo[b]thiophen-3-yl)-ethylamino]-pyrimidin-4-yl}-2-ethoxy-phenyl)-acetic acid] | 36 nM | 161 nM | 30 nM
CCOc1cc(-c2cc(NCCc3c(C)sc4c(OC)ccc(F)c34)ncn2)ccc1CC(=O)O [Example 105, (2-Ethoxy-4-{6-[2-(4-fluoro-7-methoxy-2-methyl-benzo[b]thiophen-3-yl)-ethylamino]-pyrimidin-4-yl}-phenyl)-acetic acid] | 33 nM | 58 nM | 125 nM
CCOc1cc(-c2cc(NCCc3c(C)sc4c(C)ccc(F)c34)ncn2)ccc1CC(=O)O [Example 107, (2-Ethoxy-4-{6-[2-(4-fluoro-2,7-dimethyl-benzo[b]thiophen-3-yl)-ethylamino]-pyrimidin-4-yl}-phenyl)-acetic acid] | 38 nM | 167 nM | 255 nM
